Like-named read-outs stand apart in the source and are kept apart here.
Columns and labels:
[1] = biological target: SARS-CoV-2 3CL-protease (Severe acute respiratory syndrome coronavirus 2, UniProt P0DTD1); test: biochemical
[2] = test system: 229E human corona virus (hCoV); test: 229E Cellular Assay (MRC5), 229E live virus assay, ATPlite readout; type: cell-based, hCoV-229E
[3] = recombinant 3CL-protease 10 nM, substrate 40 μM, 30 min preincubation at RT, read-out: FRET IC50
[4] = Human coronavirus 229E, MRC5, 144 h; read-out: EC50 (229E)

Row | Structure (SMILES) | IC50 [1] [nM] | EC50 ([2]; Human coronavirus 229E, MRC5, 144 h, read-out: EC50 (229E)) [nM] | IC50 [1, 3] [nM] | EC50 [2, 4] [nM] | EC50 ([2]; Human coronavirus 229E, MRC5, 144 h; MRC-5 cells, hCoV-229E MOI 0.05, 6 days at 34° C., ATPlite; read-out: EC50 (229E)) [nM]
1 | CC(C)C[C@H]1C(=O)N[C@H](C#N)C[C@@H]2C[C@@H](C/C=C/C[C@H](NC(=O)OC(C)(C)C)C(=O)N1C)NC2=O [Example 1] | 100 to 1000 | > 1000 |  |  | 
2 | CC(C)C[C@H]1C(=O)N[C@H](C#N)C[C@@H]2C[C@@H](CCCCc3nc(-c4ccccc4Cl)oc3N1C)NC2=O [Example 6] |  |  | 100 to 1000 | 100 to 1000 | 
3 | CC(C)C[C@H]1C(=O)N[C@H](C#N)C[C@@H]2C[C@@H](CCCC[C@H](NC(=O)c3ccccc3Cl)C(=O)N1C)NC2=O [Example 3] |  |  | < 100 | 100 to 1000 | 
4 | CC(C)C[C@H]1C(=O)N[C@H](C#N)C[C@@H]2C[C@@H](CCCC[C@H](NC(=O)c3ccccn3)C(=O)N1C)NC2=O [Example 4] |  |  | < 100 | > 1000 | 
5 | CC(C)C[C@H]1C(=O)N[C@H](C#N)C[C@@H]2C[C@@H](CCCC[C@H](NC(=O)OC(C)(C)C)C(=O)N1C)NC2=O [Example 2] |  |  | < 100 |  | > 1000
6 | CC(C)C[C@H]1C(=O)N[C@H](C#N)C[C@@H]2C[C@@H](CCCC[C@H](NC(=O)c3cc4c(F)cc(F)c(F)c4[nH]3)C(=O)N1C)NC2=O [Example 5] |  |  | 100 to 1000 | > 1000 | 
